Experimental findings from PubChem BioAssay AID1996 are described below.

In brackets after ≈: the same amount, converted by molar mass.

The conditions of the series: buffer; pH 7.4; 200.0 µM.
`CC(C)c1ccc(NC(=S)NNC(=O)c2cccnc2)cc1`: the kinetic solubility is > 47.2 µg/mL.
Then `N#Cc1c(F)cccc1N1CCC(C#N)CC1`, with > 34.4 µg/mL; and `COc1cc2nc(CN3CCN(S(=O)(=O)c4ccc(Br)cc4)CC3)[nH]c(=O)c2cc1OC`, with 17.7 µg/mL (≈ 33.8 µM); and `Cc1ccsc1CNCCc1ccccc1F`, with 27.1 µg/mL (≈ 109 µM).
`CC(C)Cc1cc(C(=O)Nc2ccccc2)c2ccccc2n1` gave a kinetic solubility of 3.9 µg/mL (≈ 12.8 µM).
Consider `CCc1nc2sc(C(=O)O)c(N)c2c2c1CCCC2`, for which the kinetic solubility was > 41.5 µg/mL.
For `CC(Oc1ccc(Br)cc1)C(=O)NCCCN1CCCC1=O` (stereo not drawn) the value was > 55.4 µg/mL; for `O=C(O)c1cc(S(=O)(=O)N2CCCCC2)ccc1N1CCCC1`, > 50.8 µg/mL.
For `Cc1ccc(C(=O)NCCCNC(=O)c2ccco2)cc1C` the value was 43.4 µg/mL (≈ 144 µM); for `CC(C)N1CCN(Cc2ccsc2)CC1CCO` (stereo not drawn), > 40.3 µg/mL.
For `CCOC(=O)C1CCCN(c2c(NCCc3cccc(C)c3)c(=O)c2=O)C1` (stereo not drawn) the value was 18 µg/mL (≈ 48.6 µM); for `Cc1cc(C)c2c(NC(=O)CCl)nn(C)c2n1`, > 37.9 µg/mL.
In the case of `CCNC(=O)c1ccc(CSc2nc3ccccc3s2)cc1`, the kinetic solubility is 6.7 µg/mL (≈ 20.4 µM).
For `O=C(NC1CC1)c1ccc(N2CCCCC2)c([N+](=O)[O-])c1` the value was > 43.4 µg/mL; for `Cc1ccc(CC2CC(=O)N(c3cc(Cl)ccn3)C2=O)cc1` (stereo not drawn), 13.7 µg/mL (≈ 43.5 µM).
Then `O=C(NCc1ccc2c(c1)OCO2)c1ccc(Br)cc1`, with 3.1 µg/mL (≈ 9.28 µM).
With `Cc1cccc(C(C)C)c1NC(=O)CSc1cccc[n+]1[O-]`, the kinetic solubility was > 47.5 µg/mL.
For `CCCOc1ccc(/C=N/NC(=O)CN2CCCCC2)cc1` the value was > 45.5 µg/mL; for `Cc1cc(C)c(C(=O)Nc2ccccc2)c(CC(C)(C)C(=O)O)c1`, > 48.8 µg/mL; for `COc1ccc(CNC(=O)c2cc(C(C)=O)c[nH]2)cc1`, 12.9 µg/mL (≈ 47.4 µM).
The compound `CCOc1ccc(NC(=O)NCc2ccccn2)cc1` displayed a solubility (kinetic) of 35.6 µg/mL (≈ 131 µM). Against the preceding compound, the solubility kinetic is about 2.8-fold higher.
For `CC(CCc1ccccc1)NCC#N.Cl` (stereo not drawn) the value was 31.1 µg/mL.
For `CCC(CO)N=CC1=C(O)CC(c2ccccc2)CC1=O` (stereo not drawn) the value was > 43.1 µg/mL; for `Cc1ccc(NC(=O)CN(C)Cc2c(O)ccc3ccccc23)cc1`, 23.7 µg/mL (≈ 70.9 µM); for `CN(C)CCN=Cc1c(O)n(Cc2ccc3c(c2)OCO3)c(=O)c2ccccc12`, 16.3 µg/mL (≈ 41.4 µM).
Then `CCOC(=O)c1c(C)[nH]c(NC(=O)Nc2ccc(NC(C)=O)cc2)c1C`, with 22.2 µg/mL (≈ 61.9 µM); and `O=[N+]([O-])C1C(c2ccccc2)=NOC1c1ccccc1O` (stereo not drawn), with > 42.6 µg/mL.
Consider `CC(=O)Nc1ccc(-c2csc(NC(=O)CCNC(=O)c3ccco3)n2)cc1`, for which the kinetic solubility was determined as 11.7 µg/mL (≈ 29.4 µM).
Then `COc1ccc(CCNC2=CC(=O)CC(C)(C)C2)cc1`, with 40.4 µg/mL (≈ 148 µM).
Take `Cc1ccc(NS(=O)(=O)c2cccc(C(=O)NC3CC3)c2)c(C)c1`: the solubility (kinetic) came out at 5.8 µg/mL (≈ 16.8 µM).
As to `C=CCn1c(O)c(/C=N/NC(=O)c2ccncc2)c(=O)[nH]c1=O`, the solubility (kinetic) was > 47.3 µg/mL.
For `O=c1c2ccccc2ncn1-c1cccc([N+](=O)[O-])c1` the value was 3.8 µg/mL (≈ 14.2 µM); for `CC(C)(C)OC(=O)N1CCN(CCNC(=O)c2ccccc2)CC1`, > 50 µg/mL; for `C=CCN(c1ccccc1)S(=O)(=O)c1cccc(C(=O)NCc2ccco2)c1`, 23.9 µg/mL (≈ 60.3 µM).
For `COc1ccc(-c2nc3c(s2)CN(S(C)(=O)=O)CC3)cc1OC` the value was 10.6 µg/mL (≈ 29.9 µM).
For `CCNC(=O)COC(=O)c1sccc1C`, the kinetic solubility was > 34.1 µg/mL.
The compound `Cc1ccc(NC(=O)CCS(=O)(=O)c2cccc3nonc23)cc1` gave a solubility (kinetic) of 18.1 µg/mL (≈ 52.4 µM).
Then `O=C(c1ccccc1CCc1ccccc1)N1CCCC1`, with 40.5 µg/mL (≈ 145 µM); and `Cc1[nH]c2ccc(C(=O)N3CCC(C(N)=O)CC3)cc2c1C`, with > 44.9 µg/mL.
For `O=[N+]([O-])c1ccc(N2CCN(c3ccccc3O)CC2)cc1` the value was 0.5 µg/mL (≈ 1.67 µM); for `O=C(Oc1ccccc1N1CCOCC1)c1ccccc1`, 26.3 µg/mL (≈ 92.8 µM).
For `CCOC(=O)Cc1csc(NC(=O)Nc2ccc(F)cc2)n1` the value was 4.4 µg/mL (≈ 13.6 µM); for `CCOc1ccccc1CNCCNCC(C)O.Cl` (stereo not drawn), > 48.8 µg/mL; for `COc1cc(OC)c(C(=O)N2CCCC2)cc1OC`, > 39.8 µg/mL.
`C=CCOc1ccc(/C=C2/C(=O)ON=C2C)cc1OCC` yielded a kinetic solubility of 28.3 µg/mL (≈ 98.5 µM).
As for `COc1ccc(Cc2nc3ccccc3[nH]2)cc1OC`, the solubility (kinetic) was > 40.2 µg/mL.
For `CCC1OC(c2ccc([N+](=O)[O-])cc2)=Nc2ccccc21` (stereo not drawn) the value was 3.1 µg/mL (≈ 11 µM); for `Cc1cc(C)c(NC(=O)CCc2c(C)noc2C)c(C)c1`, > 43 µg/mL.
Then `CCN(CC)Cc1c(O)ccc2c1O/C(=C\C=C\c1ccccc1)C2=O`, with 42.2 µg/mL (≈ 121 µM); and `CCN(C(=S)NC(=O)Cc1ccc(OC)cc1)c1ccccc1`, with 48.9 µg/mL (≈ 149 µM); and `Cc1cccc(OCC(=O)OCC(=O)Nc2ccc(Cl)cn2)c1`, with 32.5 µg/mL (≈ 97.1 µM).
The compound `Cc1ccsc1C(=O)OC(C)C(=O)Nc1ccc(Cl)cn1` (stereo not drawn) gave a solubility (kinetic) of 28.6 µg/mL (≈ 88.1 µM). The solubility kinetic values of the last two compounds are within 1.5-fold of each other.
Then `C=C(C)CCOC(=O)C(CC(=O)O)NCc1ccco1` (stereo not drawn), with > 42.2 µg/mL.
Then `CN1CCC(N(C)C(=O)c2cc(S(=O)(=O)N(C)c3ccccc3)ccc2Cl)CC1.Cl`, with > 70.9 µg/mL; and `NS(=O)(=O)c1cccc(NC(=O)COC(=O)CCC2CCCC2)c1`, with > 53.2 µg/mL.
For `COc1ccccc1NC(=O)CC1SC(=N)N(c2ccccc2)C1=O` (stereo not drawn), the kinetic solubility was 5.3 µg/mL (≈ 14.9 µM).
For `CC1CC(C)CN(C(=O)COC(=O)/C=C/c2ccco2)C1` (stereo not drawn) the value was > 43.7 µg/mL.
Then `Cc1ccccc1-n1c(=O)n(CCc2ccccc2)c(=O)c2[nH]cnc21`, with 10.8 µg/mL (≈ 31.2 µM).
`CN(C)c1nc(OCc2ccccc2)c2ncc(=O)[nH]c2n1` registered a kinetic solubility of 1.2 µg/mL (≈ 4.04 µM).
`O=c1[nH]cc(S(=O)(=O)Nc2ccc3c(c2)OCO3)c(=O)[nH]1`: the solubility (kinetic) is > 46.7 µg/mL.
For `COc1ccc(NC(=S)N2CCc3cc(OC)c(OC)cc3C2)cc1` the value was 1.5 µg/mL (≈ 4.18 µM); for `O=C(NC(=S)NC1CCSC1=O)c1cccc([N+](=O)[O-])c1` (stereo not drawn), 43.2 µg/mL (≈ 133 µM); for `O=[N+]([O-])c1cccnc1Oc1ccccc1F`, > 35.1 µg/mL.
Take `O=C(Nc1ccccc1F)c1ccccc1C(=O)Nc1ccccc1F`: the kinetic solubility amounted to 32.5 µg/mL (≈ 92.2 µM).
For `COc1ccc(CNC(=O)Cc2cccs2)cc1OC` the value was 42.6 µg/mL (≈ 146 µM); for `CCc1ccccc1NC(=O)C1CCCN(c2ncccn2)C1` (stereo not drawn), 8.3 µg/mL (≈ 26.7 µM); for `O=C(Nc1ccccc1C(=O)Nc1ccccc1)c1ccccc1F`, < 0.4 µg/mL.
Then `COc1ccc(N2CCOCC2)c(NC(=O)c2cccs2)c1`, with 47.7 µg/mL (≈ 150 µM); and `CC(=O)C(Cc1ccc(Cl)nc1)Cc1ccc(Cl)nc1`, with 44.9 µg/mL (≈ 145 µM); and `CC(Oc1ccc(Br)cc1Br)C(=O)Nc1cccnc1Cl` (stereo not drawn), with < 0.5 µg/mL.
For `O=C1Cc2ccccc2C(c2c(Cl)cccc2Cl)N1` (stereo not drawn) the value was < 0.6 µg/mL; for `CC(=O)N1CCC[C@H]1C(=O)O`, > 23.6 µg/mL.
For the compound `Cc1ccc(NC(=O)C2CC2)cc1S(=O)(=O)N1CCOCC1`, the kinetic solubility was > 48.7 µg/mL.
Then `COc1ccc(OC)c(NC(=O)Nc2ccc3c(c2)CCC3)c1`, with 1.3 µg/mL (≈ 4.16 µM); and `O=C(Cc1ccc(F)cc1)NC1CCCCCC1`, with > 37.4 µg/mL.
The compound `Cc1ccc(SCC(=O)O/N=C(\N)c2cccnc2)cc1` had a solubility (kinetic) of 40 µg/mL (≈ 133 µM).
For `Cc1c(Cc2ccccc2)c(=O)n2c([nH]c3ccccc32)c1C#N` the value was < 0.2 µg/mL; for `COc1cc(SC)ccc1C(=O)OCC(=O)NC(=O)NC(C)C`, 10.9 µg/mL (≈ 32 µM).
Then `CN(C)CC(O)CN(c1ccccc1)c1ccccc1` (stereo not drawn), with > 40.6 µg/mL; and `CCOc1ccc(NC(=O)CCN2C(=O)c3cccc([N+](=O)[O-])c3C2=O)cc1`, with 16.4 µg/mL (≈ 42.8 µM); and `O=C(Cc1ccccc1Cl)NCc1cccnc1`, with > 39.1 µg/mL.
`Cc1ccc(S(=O)(=O)N2C(=O)CCC2C(N)=O)cc1` (stereo not drawn): the kinetic solubility is > 42.3 µg/mL.
Then `COc1cc2cc(C(=O)NCCc3ccccc3)[nH]c2cc1OC`, with 1 µg/mL (≈ 3.08 µM); and `CC(C)(C)c1cc2ncnc(N3CCCCC3)c2s1`, with 10.5 µg/mL (≈ 38.1 µM); and `Cc1ccc(S(=O)(=O)N2CCC[C@H]2C(=O)Nc2ccccc2C)cc1`, with > 53.8 µg/mL.
For `CN(C)/C=N/C(=S)Nc1ccccc1` the value was > 31.1 µg/mL.
As to `CCOC(=O)C1CCCN(c2c(NCCC(C)C)c(=O)c2=O)C1` (stereo not drawn), the solubility (kinetic) was 44.5 µg/mL (≈ 138 µM).
Then `CC(=O)N=C1SC2CS(=O)(=O)CC2N1Cc1ccc(C)cc1` (stereo not drawn), with 19.7 µg/mL (≈ 58.2 µM); and `S=C(NCc1cccs1)Nc1cccc2ccccc12`, with 30.5 µg/mL (≈ 102 µM).
Then `CCCc1cc(=O)[nH]c(SCC(=O)Nc2ccc(N3CCCCC3)cc2)n1`, with 16.6 µg/mL (≈ 42.9 µM); and `CC(=O)c1sc2c(c1N)c(=O)[nH]c(=O)n2-c1ccccc1`, with 8.5 µg/mL (≈ 28.2 µM); and `Cc1nc2cc(NC(=O)c3ccc(Cl)cc3)ccc2n1C`, with 1 µg/mL (≈ 3.34 µM).
Then `O=C(Nc1cccnc1)c1ccc(C(=O)Nc2cccnc2)cc1`, with 0.8 µg/mL (≈ 2.51 µM).
In turn, `Cc1onc(-c2ccccc2)c1C(=O)N1CCCN2C(=O)c3ccccc3C21` (stereo not drawn) registered a solubility (kinetic) of 48.7 µg/mL (≈ 130 µM).
Then `Cc1ccc(S(=O)(=O)N2CCC(C(=O)NCc3ccccc3CN3CCCC3)CC2)cc1`, with 66.3 µg/mL (≈ 146 µM); and `N#CC1(NC(=O)CSc2ccccn2)CCCCC1`, with > 41.3 µg/mL; and `O=C(NC1CCOc2ccccc21)C1CCCC1` (stereo not drawn), with > 36.8 µg/mL.
Then `CCOc1ccc(S(=O)(=O)N(C)CC(=O)NC2CC2)cc1`, with > 46.9 µg/mL; and `O=C(CSc1ccc(F)cc1)Nc1ccc2c(c1)C(=O)NC2=O`, with 31.6 µg/mL (≈ 95.7 µM); and `O=C(COc1ccccc1[N+](=O)[O-])Nc1cc(Cl)ccc1C(=O)O`, with > 52.6 µg/mL.
`O=C(CCCc1ccccc1)Nc1ccccc1C(F)(F)F` had a solubility (kinetic) of 5.1 µg/mL (≈ 16.6 µM).
For `CCOc1ncccc1C(=O)OCC(=O)c1ccc(OC)c(OC)c1` the value was > 51.8 µg/mL.
For `COc1ccc(-c2ccc(C(=O)O)o2)c([N+](=O)[O-])c1` the value was > 39.5 µg/mL.

As a reminder, the solubility (kinetic) is the concentration staying in solution when a stock, usually in DMSO, is diluted into the medium.
